For assay [1], the target named is T1, Adenosine receptor A2a (Homo sapiens, UniProt P29274). The assay is described as follows: Displacement of [3H]CGS21680 from human recombinant adenosine A2A receptor expressed in HEK293T cells at 100 uM. The settings on record: HEK-293T. Type of assay: cell-based.
For assay [2], the target named is T2, Adenosine receptor A1 (Homo sapiens) (UniProt P30542).
T2 sequence (whole entry): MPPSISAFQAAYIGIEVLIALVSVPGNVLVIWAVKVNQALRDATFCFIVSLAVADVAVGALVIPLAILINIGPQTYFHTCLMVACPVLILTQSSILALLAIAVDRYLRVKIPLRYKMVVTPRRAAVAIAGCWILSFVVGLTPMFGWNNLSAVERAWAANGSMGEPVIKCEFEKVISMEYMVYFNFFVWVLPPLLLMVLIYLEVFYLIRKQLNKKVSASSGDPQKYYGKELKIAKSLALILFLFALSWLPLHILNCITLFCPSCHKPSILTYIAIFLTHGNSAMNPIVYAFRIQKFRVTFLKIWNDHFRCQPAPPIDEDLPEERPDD
In words: Displacement of [3H]DPCPX from human recombinant adenosine A1 receptor expressed in HEK293T cells at 100 uM. Type of assay: cell-based. The settings on record: HEK-293T.

In assay [3] the target is T3, Adenosine receptor A3 (Homo sapiens) (UniProt P0DMS8).
T3 sequence (whole entry): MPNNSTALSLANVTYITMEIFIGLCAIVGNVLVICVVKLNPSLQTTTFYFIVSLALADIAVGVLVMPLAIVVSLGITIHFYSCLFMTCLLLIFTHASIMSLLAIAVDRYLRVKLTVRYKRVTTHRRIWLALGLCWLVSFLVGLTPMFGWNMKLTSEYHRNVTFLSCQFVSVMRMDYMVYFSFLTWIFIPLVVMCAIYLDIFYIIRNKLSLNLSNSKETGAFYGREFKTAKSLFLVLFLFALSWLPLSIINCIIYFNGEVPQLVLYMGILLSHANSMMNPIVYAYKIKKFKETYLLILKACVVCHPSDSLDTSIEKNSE
In words: Displacement of [3H]NECA from human recombinant adenosine A3 receptor expressed in HEK293T cells at 100 uM. Type of assay: cell-based. The settings on record: HEK-293T.

The target of assay [4] is T1, Adenosine receptor A2a. The assay is described as follows: biochemical.
The target in assay [5] is T4, Adenosine receptor A3 (Homo sapiens, UniProt P0DMS8).
T4 sequence (P0DMS8 whole entry): T3 sequence (whole entry)
The assay is described as follows: Displacement of [3H]NECA from human recombinant adenosine A3 receptor expressed in HEK293T cells. Type of assay: cell-based, HEK-293T.

For assay [6], the target named is T5, Adenosine receptor A1 (Homo sapiens, UniProt P30542).
T5 sequence (P30542 whole entry): T2 sequence (whole entry)
In words: Displacement of [3H]DPCPX from human recombinant adenosine A1 receptor expressed in HEK293T cells. Type of assay: cell-based, HEK-293T.

T1 sequence (P29274 whole entry): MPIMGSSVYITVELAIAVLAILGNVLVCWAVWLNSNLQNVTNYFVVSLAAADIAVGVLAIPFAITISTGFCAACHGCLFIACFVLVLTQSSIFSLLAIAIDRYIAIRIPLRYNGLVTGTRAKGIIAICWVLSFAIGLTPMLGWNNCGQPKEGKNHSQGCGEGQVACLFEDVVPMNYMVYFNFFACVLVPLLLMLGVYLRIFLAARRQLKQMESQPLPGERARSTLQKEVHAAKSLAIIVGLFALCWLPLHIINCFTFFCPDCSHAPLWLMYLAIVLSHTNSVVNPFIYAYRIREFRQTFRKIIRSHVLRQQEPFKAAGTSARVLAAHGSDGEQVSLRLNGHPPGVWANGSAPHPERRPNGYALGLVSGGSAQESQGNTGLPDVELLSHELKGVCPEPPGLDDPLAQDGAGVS

`CN1CC(Nc2cccnc2)C(=O)N(C)C1=O` (stereo unspecified): the Activity was determined as 38% in assay [1], 22% in assay [2] and 25% in assay [3].

With `Cn1c(=O)c2c(c3ccncc3n2C)n(C)c1=O`, the figures for the Ki in assay [4] and in assay [5] were 4.19 µM and 3.19 µM, respectively.

With `Cn1c(=O)c2c(c3ncccc3n2C)n(C)c1=O`, the Ki in assay [6] turned out to be 13.5 µM; in assay [5], 0.332 µM.

In the case of `Cn1c(=O)c2[nH]c3cnccc3c2n(C)c1=O`, the Ki came out at 11.7 µM in assay [6] and 0.526 µM in assay [5].

For `CN1CC(N(C)c2cccnc2)C(=O)N(C)C1=O` (stereo unspecified), the results for the Activity in assay [1], in assay [2] and in assay [3] were 29%, 9% and 0.2%, respectively.

Consider `Cn1c(=O)c2[nH]c3cccnc3c2n(C)c1=O`, for which the inhibition constant (Ki) in assay [6] worked out at 0.379 µM; in assay [5], 0.0139 µM.

On to `CN1C(=O)C(N)C(c2ccncc2Cl)N(C)C1=O` (stereo unspecified), for which the results for the Activity in assay [1], in assay [2] and in assay [3] were 15%, 8% and 3%, respectively.

Turning to `Oc1c(Br)cc2[nH]c3cnccc3c2c1Br`, the Ki came to 4.92 µM in assay [4], 7.37 µM in assay [6] and 2.05 µM in assay [5].

`Cn1c(=O)c2c(ncn2C)n(C)c1=O`: in assay [3], the Activity was 9%.

The record behind these values is ChEMBL document CHEMBL1142932 (Bioorg Med Chem, 2007).
